# Laboratory results from ChEMBL document CHEMBL1201862, “PubChem BioAssay data set” (2004).
# Active and inactive are the calls of the source.
# How the values were obtained:
# HEK293 [1] = experiment: NOD1 signaling inhibitors, primary screen, cell-based, luminescence, uHTS (AID 1578); assay type: functional; conditions: Homo sapiens
# BJ [2] = experiment: cytotoxicity toward BJ-TERT fibroblasts, dose response, cell-based, RAS-independent, luminescence (AID 1933); assay type: functional; conditions: Homo sapiens
# HEK293 [3] = experiment: cells; assay type: functional, cell-based; conditions: Homo sapiens
# BJ [4] = experiment: cells; assay type: functional, cell-based; conditions: Homo sapiens
# HEK293 [5] = experiment: cells; assay type: functional, cell-based; conditions: Homo sapiens; remark: listed apart in the source
# [6] = biological target: Nucleotide-binding oligomerization domain-containing protein 2 (Homo sapiens, UniProt Q9HC29); experiment: NOD2 signaling inhibitors, cell-based, luminescence, uHTS, HEK293 (AID 1566); assay type: functional
# Sequence of Nucleotide-binding oligomerization domain-containing protein 2 (Q9HC29 whole entry, the tested form may be a part): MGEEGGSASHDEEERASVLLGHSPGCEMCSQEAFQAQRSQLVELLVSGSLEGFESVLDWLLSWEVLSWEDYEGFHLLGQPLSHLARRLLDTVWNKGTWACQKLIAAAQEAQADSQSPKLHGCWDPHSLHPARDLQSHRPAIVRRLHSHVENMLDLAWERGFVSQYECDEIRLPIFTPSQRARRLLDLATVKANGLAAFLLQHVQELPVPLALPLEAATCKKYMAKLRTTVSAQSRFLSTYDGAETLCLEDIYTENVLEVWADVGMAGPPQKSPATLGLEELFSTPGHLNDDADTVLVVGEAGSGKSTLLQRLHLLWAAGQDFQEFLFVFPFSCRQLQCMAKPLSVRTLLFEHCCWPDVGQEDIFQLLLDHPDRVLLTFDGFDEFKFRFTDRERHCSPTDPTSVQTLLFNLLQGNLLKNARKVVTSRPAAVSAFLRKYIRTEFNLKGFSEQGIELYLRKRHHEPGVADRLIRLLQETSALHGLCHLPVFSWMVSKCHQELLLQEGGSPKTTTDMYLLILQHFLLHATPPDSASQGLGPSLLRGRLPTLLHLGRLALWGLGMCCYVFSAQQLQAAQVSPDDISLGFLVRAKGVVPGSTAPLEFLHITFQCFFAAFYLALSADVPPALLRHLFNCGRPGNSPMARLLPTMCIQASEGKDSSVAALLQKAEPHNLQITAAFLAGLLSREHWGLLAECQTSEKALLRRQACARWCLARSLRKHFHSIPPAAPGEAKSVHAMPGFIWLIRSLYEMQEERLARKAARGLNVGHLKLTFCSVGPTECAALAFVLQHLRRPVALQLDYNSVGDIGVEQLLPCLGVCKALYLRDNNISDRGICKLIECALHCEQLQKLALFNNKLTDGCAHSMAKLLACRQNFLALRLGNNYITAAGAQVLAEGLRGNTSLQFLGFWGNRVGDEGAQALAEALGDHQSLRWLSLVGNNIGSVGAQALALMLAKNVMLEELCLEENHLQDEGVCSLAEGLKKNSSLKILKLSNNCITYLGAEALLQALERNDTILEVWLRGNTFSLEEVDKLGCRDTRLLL
# HEK293 [7] = experiment: NOD2 signaling inhibitors in MDP-stimulated cells, cell-based, uHTS, luminescence (AID 2001); assay type: functional; conditions: Homo sapiens
# HEK293 [8] = experiment: cells; assay type: functional, cell-based; conditions: Homo sapiens; remark: listed apart in the source
# [9] = microbe, parasite or virus in culture; assay type: functional; conditions: Mycobacterium tuberculosis
# BJ [10] = experiment: cytotoxicity toward BJ-TERT-LT-ST fibroblasts, dose response, cell-based, RAS-independent, luminescence (AID 1935); assay type: functional; conditions: Homo sapiens;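 further: BJ fibroblasts immortalized with TERT plus LT and ST oncogenes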
# [11] = cytotoxicity toward DRD oncogenic fibroblasts, dose response, cell-based, non-viral oncogenic, luminescence (AID 1934); assay type: functional; conditions: Homo sapiens
# [12] = biological target: DNA damage-inducible transcript 3 protein (Mus musculus, UniProt P35639); assay type: functional, Cricetulus griseus
# Sequence of DNA damage-inducible transcript 3 protein (P35639 whole entry): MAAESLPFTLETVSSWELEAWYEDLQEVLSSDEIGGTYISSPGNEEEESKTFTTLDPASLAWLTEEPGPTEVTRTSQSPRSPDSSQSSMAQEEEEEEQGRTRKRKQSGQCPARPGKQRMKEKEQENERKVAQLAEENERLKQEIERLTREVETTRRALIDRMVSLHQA
# [13] = biological target: T1, Microphthalmia-associated transcription factor (Homo sapiens, UniProt O75030); experiment: TRPM1 promoter luciferase signal decrease, dose response, MITF inhibitor project, cell-based, SK-MEL-5, cherry-picked, set 3 (AID 493073); assay type: functional
# T1 sequence (O75030 whole entry): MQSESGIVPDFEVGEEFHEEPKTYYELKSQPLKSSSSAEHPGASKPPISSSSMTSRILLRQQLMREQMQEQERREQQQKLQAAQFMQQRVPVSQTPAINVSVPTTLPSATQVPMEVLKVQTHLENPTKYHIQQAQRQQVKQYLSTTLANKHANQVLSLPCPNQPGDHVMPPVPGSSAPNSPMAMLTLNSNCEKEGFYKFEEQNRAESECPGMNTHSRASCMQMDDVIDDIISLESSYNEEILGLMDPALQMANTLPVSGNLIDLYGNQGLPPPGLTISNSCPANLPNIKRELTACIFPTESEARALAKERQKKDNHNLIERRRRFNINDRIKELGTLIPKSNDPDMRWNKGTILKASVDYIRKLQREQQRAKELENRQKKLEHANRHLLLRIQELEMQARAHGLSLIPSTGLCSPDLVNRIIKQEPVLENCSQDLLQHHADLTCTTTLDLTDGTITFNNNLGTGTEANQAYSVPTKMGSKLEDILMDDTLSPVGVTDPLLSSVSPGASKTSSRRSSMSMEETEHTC
# [14] = biological target: T2, Replicative DNA helicase DnaB (Mycobacterium tuberculosis, UniProt P9WMR3); experiment: DnaB intein splicing inhibitors, dose response, biochemical, cell-free fluorescence (AID 449749); assay type: functional
# T2 sequence (P9WMR3 whole entry): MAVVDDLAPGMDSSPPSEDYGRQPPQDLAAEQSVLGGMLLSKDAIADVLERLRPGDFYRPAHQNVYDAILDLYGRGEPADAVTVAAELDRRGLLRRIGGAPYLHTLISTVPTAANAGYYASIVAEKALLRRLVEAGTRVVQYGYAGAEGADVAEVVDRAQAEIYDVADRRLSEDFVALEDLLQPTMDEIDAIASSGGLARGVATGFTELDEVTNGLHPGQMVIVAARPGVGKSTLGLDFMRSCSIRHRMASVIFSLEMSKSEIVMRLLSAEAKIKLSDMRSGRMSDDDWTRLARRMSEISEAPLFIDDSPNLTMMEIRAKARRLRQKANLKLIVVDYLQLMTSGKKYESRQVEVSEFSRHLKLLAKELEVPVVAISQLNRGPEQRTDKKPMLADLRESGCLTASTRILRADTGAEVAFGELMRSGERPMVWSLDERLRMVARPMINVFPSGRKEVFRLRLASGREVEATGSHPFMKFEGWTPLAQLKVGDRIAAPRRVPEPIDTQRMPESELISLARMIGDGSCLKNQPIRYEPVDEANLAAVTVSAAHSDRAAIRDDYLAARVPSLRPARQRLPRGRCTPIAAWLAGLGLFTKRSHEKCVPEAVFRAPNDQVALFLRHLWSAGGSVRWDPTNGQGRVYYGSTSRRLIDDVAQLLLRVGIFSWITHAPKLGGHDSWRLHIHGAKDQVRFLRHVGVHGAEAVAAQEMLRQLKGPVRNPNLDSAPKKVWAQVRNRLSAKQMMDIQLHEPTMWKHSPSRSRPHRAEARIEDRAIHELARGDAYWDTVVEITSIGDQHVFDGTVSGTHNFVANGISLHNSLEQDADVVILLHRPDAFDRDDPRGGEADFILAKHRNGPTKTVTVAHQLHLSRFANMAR
# Protein RecA = biological target: T3, Protein RecA (Mycobacterium tuberculosis, UniProt P9WHJ3); experiment: Fluorescence Cell-Free Homogeneous Dose Retest to Identify Inhibitors of RecA-Intein Splicing Activity. [Related pubchem assays (depositor defined):AID2097, AID2223, AID489010, AID492950]; assay type: functional
# T3 sequence (P9WHJ3 whole entry): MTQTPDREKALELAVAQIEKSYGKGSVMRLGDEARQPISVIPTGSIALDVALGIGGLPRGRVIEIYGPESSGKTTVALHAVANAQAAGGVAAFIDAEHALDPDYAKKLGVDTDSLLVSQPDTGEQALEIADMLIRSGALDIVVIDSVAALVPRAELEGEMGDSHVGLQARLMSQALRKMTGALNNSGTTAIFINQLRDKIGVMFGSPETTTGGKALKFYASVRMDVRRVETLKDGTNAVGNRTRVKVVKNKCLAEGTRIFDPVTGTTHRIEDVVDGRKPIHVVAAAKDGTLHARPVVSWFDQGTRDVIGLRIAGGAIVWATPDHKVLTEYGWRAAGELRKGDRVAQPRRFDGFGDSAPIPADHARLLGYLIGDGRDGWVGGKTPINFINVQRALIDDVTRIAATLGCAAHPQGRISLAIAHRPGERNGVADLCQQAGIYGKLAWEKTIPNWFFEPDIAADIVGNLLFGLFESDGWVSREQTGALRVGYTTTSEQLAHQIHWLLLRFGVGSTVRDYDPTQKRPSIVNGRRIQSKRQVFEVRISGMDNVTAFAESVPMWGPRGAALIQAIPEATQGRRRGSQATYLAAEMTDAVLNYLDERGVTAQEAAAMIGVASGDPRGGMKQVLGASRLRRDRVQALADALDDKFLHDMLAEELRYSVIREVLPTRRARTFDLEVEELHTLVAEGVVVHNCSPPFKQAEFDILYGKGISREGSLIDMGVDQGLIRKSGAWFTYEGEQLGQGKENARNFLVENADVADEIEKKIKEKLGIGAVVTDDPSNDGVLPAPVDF
# Integrin alpha-L = Integrin alpha-L (Mus musculus, UniProt P24063); experiment: modulators of CD8 T cell-vesicle binding, dose response, powder samples, mouse 2C CD8+ cells (AID 504565); assay type: functional
# Sequence of Integrin alpha-L (P24063 whole entry): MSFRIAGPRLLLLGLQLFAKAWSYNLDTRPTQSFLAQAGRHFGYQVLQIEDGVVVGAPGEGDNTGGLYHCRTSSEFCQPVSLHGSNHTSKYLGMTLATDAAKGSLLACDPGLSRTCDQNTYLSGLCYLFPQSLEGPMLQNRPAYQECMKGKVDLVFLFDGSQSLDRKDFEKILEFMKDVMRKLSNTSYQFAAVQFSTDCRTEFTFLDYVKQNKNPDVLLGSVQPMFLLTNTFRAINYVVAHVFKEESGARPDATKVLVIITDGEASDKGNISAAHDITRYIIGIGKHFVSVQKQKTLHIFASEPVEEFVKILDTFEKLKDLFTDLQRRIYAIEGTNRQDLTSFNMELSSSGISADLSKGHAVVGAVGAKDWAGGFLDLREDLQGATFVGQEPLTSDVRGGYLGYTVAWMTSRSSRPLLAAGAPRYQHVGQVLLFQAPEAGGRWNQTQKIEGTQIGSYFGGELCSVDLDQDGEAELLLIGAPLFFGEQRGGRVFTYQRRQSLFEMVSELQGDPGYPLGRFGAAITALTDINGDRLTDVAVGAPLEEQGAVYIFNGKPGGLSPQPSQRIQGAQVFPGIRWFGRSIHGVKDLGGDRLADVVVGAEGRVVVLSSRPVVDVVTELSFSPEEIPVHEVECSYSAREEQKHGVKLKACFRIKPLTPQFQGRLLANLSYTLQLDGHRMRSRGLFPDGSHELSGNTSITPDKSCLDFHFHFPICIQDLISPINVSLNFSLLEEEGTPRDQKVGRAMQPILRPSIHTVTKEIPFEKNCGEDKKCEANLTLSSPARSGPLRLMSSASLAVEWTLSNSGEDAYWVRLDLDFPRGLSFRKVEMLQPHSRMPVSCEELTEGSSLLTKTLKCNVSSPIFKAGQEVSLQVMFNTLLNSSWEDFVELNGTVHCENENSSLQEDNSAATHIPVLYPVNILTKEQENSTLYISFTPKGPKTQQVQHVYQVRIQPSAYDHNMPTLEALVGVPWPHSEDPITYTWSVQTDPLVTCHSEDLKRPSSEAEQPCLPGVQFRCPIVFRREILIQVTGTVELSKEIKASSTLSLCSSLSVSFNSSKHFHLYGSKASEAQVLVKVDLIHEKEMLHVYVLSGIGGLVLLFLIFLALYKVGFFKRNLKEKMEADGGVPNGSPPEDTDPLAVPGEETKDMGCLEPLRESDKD
# [15] = biological target: T4, Tyrosine-protein phosphatase non-receptor type 7 (Homo sapiens, UniProt P35236); experiment: redox-dependent HePTP inhibition, mechanism study, biochemical, fluorescence (AID 2068); assay type: functional
# T4 sequence (P35236 whole entry): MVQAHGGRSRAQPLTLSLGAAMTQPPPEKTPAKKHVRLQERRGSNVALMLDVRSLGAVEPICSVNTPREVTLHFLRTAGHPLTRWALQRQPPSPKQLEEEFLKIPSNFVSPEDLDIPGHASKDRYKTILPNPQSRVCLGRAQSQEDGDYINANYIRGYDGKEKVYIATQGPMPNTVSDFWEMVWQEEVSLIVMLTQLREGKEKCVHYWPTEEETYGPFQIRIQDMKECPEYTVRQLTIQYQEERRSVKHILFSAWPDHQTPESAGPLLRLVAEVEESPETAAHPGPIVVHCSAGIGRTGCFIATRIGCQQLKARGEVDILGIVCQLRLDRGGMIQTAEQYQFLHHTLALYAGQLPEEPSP
# [16] = biological target: Dual specificity protein phosphatase 3 (Homo sapiens, UniProt P51452); experiment: SAR VHR1 Fluorescent Assay for In Vitro dose response studies Set 2. [Related pubchem assays (depositor defined):AID1654, AID1661, AID1878]; assay type: functional
# Sequence of Dual specificity protein phosphatase 3 (P51452 whole entry): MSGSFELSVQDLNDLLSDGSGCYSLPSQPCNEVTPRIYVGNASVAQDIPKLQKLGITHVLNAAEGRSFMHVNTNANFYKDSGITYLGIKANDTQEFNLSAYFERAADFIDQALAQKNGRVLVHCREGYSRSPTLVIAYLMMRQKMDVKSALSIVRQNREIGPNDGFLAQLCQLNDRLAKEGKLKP
# [17] = biological target: T5, Dual specificity protein phosphatase 6 (Rattus norvegicus, UniProt Q64346); assay type: functional;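 further: confirmatory in vitro dose-response testing of MKP-3 inhibition; recombinant His-tagged MKP-3 made in E. coli BL21 with OMFP substrate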
# T5 sequence (Q64346 whole entry): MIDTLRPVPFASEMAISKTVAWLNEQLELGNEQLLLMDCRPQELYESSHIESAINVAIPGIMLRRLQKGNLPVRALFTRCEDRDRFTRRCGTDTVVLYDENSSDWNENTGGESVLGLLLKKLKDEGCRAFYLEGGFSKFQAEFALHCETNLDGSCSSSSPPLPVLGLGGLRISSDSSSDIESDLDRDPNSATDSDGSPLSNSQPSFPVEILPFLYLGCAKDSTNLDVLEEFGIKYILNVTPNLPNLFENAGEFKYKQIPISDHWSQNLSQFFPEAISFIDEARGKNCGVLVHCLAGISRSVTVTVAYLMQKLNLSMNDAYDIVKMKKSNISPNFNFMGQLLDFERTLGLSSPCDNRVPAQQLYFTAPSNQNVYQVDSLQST
compound,measurement,setting,value
O=C(CCl)Nc1cn(-c2ccccc2)nc1-c1ccccc1,EC50,HEK293 [1],4.78 µM (active)
same,EC50,BJ [2],8.36 µM (active)
same,IC50,HEK293 [3],5.28 µM (active)
same,EC50,BJ [4],14.4 µM (active)
same,IC50,HEK293 [5],> 20 µM (inactive)
same,EC50,[6],> 20 µM (inactive)
same,IC50,HEK293 [7],9.25 µM (active)
same,IC50,HEK293 [8],> 20 µM (inactive)
same,CC50,[9],6.92 µM (active)
same,EC50,BJ [10],> 150 µM (inconclusive)
same,EC50,[11],16.2 µM (active)
same,Absolute IC50 (CHOP),[12],10 µM
same,AC50,[13],14.5 µM (active)
same,AC50,[14],13.1 µM (active)
same,EC50,Protein RecA,6.32 µM (active)
O=C(COC(=O)C12CC3CC(CC(Br)(C3)C1)C2)Nc1cccc(S(=O)(=O)N2CCOCC2)c1,EC50,Integrin alpha-L,1.21 µM (active)
Cc1ccc(NC(=O)CN2C(=O)S/C(=C\c3ccc(C(=O)O)cc3)C2=O)cc1,IC50,[15],14.4 µM (active)
same,IC50,[16],> 100 µM (inactive)
same,IC50,[17],> 100 µM (inactive)
